Data reported in ChEMBL document CHEMBL1201862, “PubChem BioAssay data set” (2004).
Active and inactive are the calls of the source.

How the values were obtained:
[1] = OVCAR-3 cell viability loss – plate reader, dry powder samples, PAX8 inhibitor project, dose response (AID 743044); type: functional, cell-based
[2] = OVCAR8 cell viability loss – plate reader, dry powder samples, PAX8 project, dose response (AID 743197); type: functional, cell-based; conditions: OVCAR-8
[3] = A2780 cell killing – plate reader, dry powder samples, cytotoxicity control, dose response (AID 743046); type: functional, cell-based
[4] = molecular target: Paired box protein Pax-8 (Homo sapiens, UniProt Q06710); assay: PAX8 transcriptional activity inhibition in RMG-I – RMG-I cells, luciferase, cherry-pick, dose response (AID 687027); type: functional, cell-based;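 note: luciferase reporter driven by Pax8 target thyroperoxidase promoter measured by SteadyGlo luminescence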
[5] = IGROV1 cell killing – plate reader, dry powder samples, PAX8 inhibitor project, dose response (AID 743043); type: functional, cell-based; conditions: IGROV-1
[6] = molecular target: T1, Endoribonuclease toxin MazF (Escherichia coli K-12, UniProt P0AE70); assay: activation of MazEF endoribonuclease cleavage – biochemical, fluorescence, single-stranded RNA substrate, uHTS hits, dose response (AID 588481); type: functional
T1 sequence (P0AE70 whole entry): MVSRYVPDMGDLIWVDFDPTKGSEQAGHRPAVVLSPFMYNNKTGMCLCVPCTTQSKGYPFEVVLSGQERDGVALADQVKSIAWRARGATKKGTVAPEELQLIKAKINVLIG

[7] = molecular target: T1, Endoribonuclease toxin MazF; assay: substrate-only fluorescence increase artefacts – biochemical, single-stranded RNase substrate, counter-screen for MazEF activator project, dose response (AID 588502); type: functional
[8] = toxicity to human HepG2 hepatoma cells – cell-based, plate reader, dry powder samples, cytotoxicity control, dose response (AID 1159569); type: functional;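 note: inhibitor potency with signal falling toward the positive control level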
[9] = P. falciparum Dd2 growth inhibitors, dose response, SYBR Green, cherry-picked samples (AID 1159567); type: functional, cell-based
[10] = growth inhibition of PfATP4-mutant resistant parasites – NITD609-resistant line, SYBR Green, dry powder, dose response (AID 1159571); type: functional, cell-based;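 note: parasites synchronized at ring stage by sorbitol before testing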
[11] = growth inhibition of yeast DHODH-expressing 3D7 parasites – SYBR Green, dry powder samples, dose response (AID 1159570); type: functional, cell-based;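 note: parasite growth measured after 72 hours of compound exposure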
[12] = Dd2 malaria parasite growth inhibition potency – SYBR Green, dry powder samples, dose response (AID 1159566); type: functional, cell-based;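 note: potency for growth inhibition with lower SYBR green DNA signal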
[13] = viability inhibitors of stage V gametocytes – luminescence, dose response (AID 1117278); type: functional, cell-based;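 note: gametocytes exposed to compound for 24 hours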
[14] = viability loss in human Jurkat cells – cell-based, luminescence, cytotoxicity control for P. falciparum gametocyte viability project, dose response (AID 1117277); type: functional;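 note: potency reflects loss of cellular ATP meaning fewer viable cells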
[15] = molecular target: T2, Fatty acid synthase (Homo sapiens, UniProt P49327); assay: inhibition of human FAS-TE enzyme activity – biochemical, endpoint fluorescence intensity, uHTS hits, dose response (AID 624327); type: functional;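 note: fluorescence from hydrolysis of an O-methyl fluorescein acyl ester substrate by the enzyme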
[16] = molecular target: T2, Fatty acid synthase; assay: inhibition of human FAS-TE enzyme activity – biochemical, kinetic fluorescence intensity, dose response (AID 624326); type: functional;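 note: rate of fluorescence rise from hydrolysis of a fluorogenic O-methyl fluorescein ester substrate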
[17] = molecular target: Disintegrin and metalloproteinase domain-containing protein 17 (Homo sapiens, UniProt P78536); assay: exosite inhibitors of ADAM17, dose response, biochemical (AID 743260)
[18] = T. cruzi growth inhibition in host cells, dose response, cell-based, plate reader, dry powder, set 2 (AID 652275); type: functional
[19] = HGIII-sPLA2 enzyme inhibition potency – biochemical, QFRET, IC50, dose response (AID 743457);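 note: green fluorescence rise as the enzyme cleaves BODIPY PC-A2 in liposomes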
[20] = molecular target: T3, Mannose-6-phosphate isomerase (Homo sapiens, UniProt P34949); assay: MPI inhibition at elevated mannose 6-phosphate – biochemical, fluorescence intensity, high mannose 6-phosphate, primary screen (AID 1220)
T3 sequence (P34949 whole entry): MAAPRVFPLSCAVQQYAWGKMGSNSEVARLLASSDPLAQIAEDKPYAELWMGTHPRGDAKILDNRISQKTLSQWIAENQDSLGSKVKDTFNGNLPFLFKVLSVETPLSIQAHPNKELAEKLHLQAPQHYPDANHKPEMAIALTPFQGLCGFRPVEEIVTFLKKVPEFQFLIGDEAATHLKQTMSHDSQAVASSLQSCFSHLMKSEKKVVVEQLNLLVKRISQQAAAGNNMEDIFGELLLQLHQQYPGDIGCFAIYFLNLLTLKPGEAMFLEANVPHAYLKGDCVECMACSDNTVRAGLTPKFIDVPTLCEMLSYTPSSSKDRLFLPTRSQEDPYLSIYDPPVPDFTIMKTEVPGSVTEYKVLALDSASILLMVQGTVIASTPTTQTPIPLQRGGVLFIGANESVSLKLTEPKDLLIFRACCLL

T2 sequence (P49327 whole entry): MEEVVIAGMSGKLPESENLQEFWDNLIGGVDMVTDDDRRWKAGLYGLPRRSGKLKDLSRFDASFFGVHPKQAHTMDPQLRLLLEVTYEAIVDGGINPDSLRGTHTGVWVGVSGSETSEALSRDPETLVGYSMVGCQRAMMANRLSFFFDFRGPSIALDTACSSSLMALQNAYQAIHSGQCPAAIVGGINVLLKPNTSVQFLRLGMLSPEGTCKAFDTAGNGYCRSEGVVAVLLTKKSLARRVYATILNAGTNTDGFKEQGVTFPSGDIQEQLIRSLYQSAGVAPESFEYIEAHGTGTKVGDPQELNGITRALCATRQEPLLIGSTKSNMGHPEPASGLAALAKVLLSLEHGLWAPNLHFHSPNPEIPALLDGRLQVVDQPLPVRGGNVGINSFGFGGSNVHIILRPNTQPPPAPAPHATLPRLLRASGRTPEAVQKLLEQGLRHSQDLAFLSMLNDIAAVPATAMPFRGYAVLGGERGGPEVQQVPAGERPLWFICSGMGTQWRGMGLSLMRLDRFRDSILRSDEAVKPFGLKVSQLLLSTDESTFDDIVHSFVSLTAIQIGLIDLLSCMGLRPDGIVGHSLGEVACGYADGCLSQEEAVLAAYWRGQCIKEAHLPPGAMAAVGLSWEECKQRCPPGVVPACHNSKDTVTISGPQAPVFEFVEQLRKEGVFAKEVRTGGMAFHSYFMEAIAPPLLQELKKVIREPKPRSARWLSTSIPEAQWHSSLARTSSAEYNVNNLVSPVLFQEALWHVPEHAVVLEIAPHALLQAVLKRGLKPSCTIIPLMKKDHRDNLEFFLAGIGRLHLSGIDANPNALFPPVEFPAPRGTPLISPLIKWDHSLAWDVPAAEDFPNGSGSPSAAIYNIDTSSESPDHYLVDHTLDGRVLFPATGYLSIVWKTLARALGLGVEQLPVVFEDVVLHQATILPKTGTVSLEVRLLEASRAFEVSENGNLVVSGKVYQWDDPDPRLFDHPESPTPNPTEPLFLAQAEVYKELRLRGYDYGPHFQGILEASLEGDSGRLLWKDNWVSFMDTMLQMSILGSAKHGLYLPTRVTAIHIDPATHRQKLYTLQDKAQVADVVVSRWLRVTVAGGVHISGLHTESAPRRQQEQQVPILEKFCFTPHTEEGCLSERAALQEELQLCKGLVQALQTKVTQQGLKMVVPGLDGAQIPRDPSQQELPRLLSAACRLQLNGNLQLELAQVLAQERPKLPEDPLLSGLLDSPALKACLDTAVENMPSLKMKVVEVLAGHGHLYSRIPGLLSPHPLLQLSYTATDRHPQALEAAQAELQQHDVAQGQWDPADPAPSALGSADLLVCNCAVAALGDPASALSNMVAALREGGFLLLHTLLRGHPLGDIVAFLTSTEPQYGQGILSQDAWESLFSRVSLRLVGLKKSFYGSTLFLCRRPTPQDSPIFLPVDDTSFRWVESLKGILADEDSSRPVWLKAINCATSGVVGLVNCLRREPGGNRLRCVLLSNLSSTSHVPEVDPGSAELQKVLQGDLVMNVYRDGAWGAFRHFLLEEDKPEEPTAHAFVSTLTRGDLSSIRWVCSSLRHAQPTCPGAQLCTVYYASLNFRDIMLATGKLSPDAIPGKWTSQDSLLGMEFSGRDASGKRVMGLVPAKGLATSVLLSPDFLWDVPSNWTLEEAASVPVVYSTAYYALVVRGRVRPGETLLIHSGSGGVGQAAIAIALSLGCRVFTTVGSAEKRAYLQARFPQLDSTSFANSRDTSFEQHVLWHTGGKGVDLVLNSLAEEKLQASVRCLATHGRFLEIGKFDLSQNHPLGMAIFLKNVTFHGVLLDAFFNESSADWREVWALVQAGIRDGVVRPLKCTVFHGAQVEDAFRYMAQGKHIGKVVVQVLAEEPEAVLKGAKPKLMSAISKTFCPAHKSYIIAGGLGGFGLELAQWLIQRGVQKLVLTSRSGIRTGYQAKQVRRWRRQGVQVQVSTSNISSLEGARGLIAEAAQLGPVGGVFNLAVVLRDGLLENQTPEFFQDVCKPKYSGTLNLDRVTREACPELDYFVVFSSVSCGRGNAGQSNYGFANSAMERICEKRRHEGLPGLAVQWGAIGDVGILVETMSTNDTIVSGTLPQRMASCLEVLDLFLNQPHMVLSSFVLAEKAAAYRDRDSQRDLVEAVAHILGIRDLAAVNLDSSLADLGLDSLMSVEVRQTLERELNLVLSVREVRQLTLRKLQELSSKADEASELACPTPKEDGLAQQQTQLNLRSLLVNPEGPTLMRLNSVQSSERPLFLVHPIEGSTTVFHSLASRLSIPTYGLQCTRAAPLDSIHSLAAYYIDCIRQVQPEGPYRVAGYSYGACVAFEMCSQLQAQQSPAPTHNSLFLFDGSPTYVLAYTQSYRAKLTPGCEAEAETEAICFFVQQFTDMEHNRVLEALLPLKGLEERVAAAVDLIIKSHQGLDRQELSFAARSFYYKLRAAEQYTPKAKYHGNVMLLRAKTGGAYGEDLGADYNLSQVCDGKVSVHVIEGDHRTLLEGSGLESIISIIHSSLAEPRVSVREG
Chain of Paired box protein Pax-8 (Q06710 whole entry): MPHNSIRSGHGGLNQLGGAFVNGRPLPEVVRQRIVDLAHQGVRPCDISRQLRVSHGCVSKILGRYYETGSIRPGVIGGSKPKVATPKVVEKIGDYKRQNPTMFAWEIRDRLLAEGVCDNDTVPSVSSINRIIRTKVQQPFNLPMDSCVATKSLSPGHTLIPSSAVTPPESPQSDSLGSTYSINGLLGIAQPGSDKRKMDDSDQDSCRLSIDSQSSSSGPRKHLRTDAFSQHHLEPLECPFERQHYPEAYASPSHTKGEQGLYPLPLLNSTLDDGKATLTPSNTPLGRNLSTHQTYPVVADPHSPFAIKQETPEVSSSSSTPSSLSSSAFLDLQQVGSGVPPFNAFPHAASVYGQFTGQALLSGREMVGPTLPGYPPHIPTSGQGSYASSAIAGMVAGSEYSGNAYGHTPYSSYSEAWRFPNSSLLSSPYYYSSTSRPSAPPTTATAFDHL
Chain of Disintegrin and metalloproteinase domain-containing protein 17 (P78536 whole entry, the tested form may be a part): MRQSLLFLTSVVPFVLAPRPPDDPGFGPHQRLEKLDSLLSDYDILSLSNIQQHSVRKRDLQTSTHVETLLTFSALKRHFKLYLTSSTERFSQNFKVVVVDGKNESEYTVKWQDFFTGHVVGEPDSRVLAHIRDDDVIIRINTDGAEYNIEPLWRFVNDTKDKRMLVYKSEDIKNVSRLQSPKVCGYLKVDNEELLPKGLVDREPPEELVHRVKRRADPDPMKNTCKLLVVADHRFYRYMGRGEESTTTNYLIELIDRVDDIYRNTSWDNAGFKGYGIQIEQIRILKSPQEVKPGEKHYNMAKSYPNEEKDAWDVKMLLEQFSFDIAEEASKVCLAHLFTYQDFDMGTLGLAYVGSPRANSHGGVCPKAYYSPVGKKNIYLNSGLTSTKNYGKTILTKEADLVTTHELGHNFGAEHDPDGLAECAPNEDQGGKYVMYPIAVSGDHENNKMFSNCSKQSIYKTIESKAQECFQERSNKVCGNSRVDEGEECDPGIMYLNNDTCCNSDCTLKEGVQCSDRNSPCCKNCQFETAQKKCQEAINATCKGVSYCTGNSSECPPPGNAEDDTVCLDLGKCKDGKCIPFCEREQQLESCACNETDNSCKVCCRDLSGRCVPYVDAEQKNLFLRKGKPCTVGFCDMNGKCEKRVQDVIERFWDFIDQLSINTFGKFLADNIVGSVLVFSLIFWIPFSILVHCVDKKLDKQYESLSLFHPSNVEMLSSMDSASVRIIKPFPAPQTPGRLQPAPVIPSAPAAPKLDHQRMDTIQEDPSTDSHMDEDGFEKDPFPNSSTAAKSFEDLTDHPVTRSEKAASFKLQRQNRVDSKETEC

Q: With `Cc1ccc(S(=O)(=O)Nc2ccc3c(c2)C(=O)N([C@H](C)CO)C[C@@H](C)[C@@H](CN(C)CC2CCCCC2)OCCCC[C@@H](C)O3)cc1` as the molecule, how does the AC50 [1] read?
A: The AC50 was 26.5 µM (active).

Q: What about the AC50 [2] of the same molecule?
A: The AC50 was 40.4 µM (active).

Q: What about the AC50 [3] of the same molecule?
A: Its AC50 is 38.2 µM (active).

Q: And the AC50 [4]?
A: The AC50 was 5.51 µM (active).

Q: What about the AC50 [5] of the same molecule?
A: The AC50 was 38.8 µM (active).

Q: Which results are given for `O=C(Nc1cccc2ccccc12)N1CC=C(c2ccccc2)CC1`?
A: EC50 [6]: 53.7 µM (inactive); EC50 [7]: > 99 µM (inactive)

Q: With `C[C@@H]1CN([C@H](C)CO)C(=O)c2ccccc2-c2ccccc2CO[C@@H]1CN(C)Cc1ccc(C(F)(F)F)cc1` as the molecule, how does the AC50 [8] read?
A: Its AC50 is 21.5 µM (active).

Q: What about the AC50 [9] of the same molecule?
A: Its AC50 is 2.16 µM (active).

Q: And the AC50 [10]?
A: The AC50 was 1.82 µM (active).

Q: And the AC50 [11]?
A: The AC50 was 3.53 µM (active).

Q: What about the AC50 [12] of the same molecule?
A: The AC50 was 1.93 µM (active).

Q: For `COc1ccc(/C=C/c2c(-c3ccc(OC)cc3)oc3cccnc23)cc1`, which IC50 [13] is on record?
A: The IC50 was > 109 µM (inactive).

Q: And the IC50 [14]?
A: Its IC50 is > 83.3 µM (inactive).

Q: With `Cc1cccc(NS(=O)(=O)c2ccc3[nH]c(=O)cc(C(=O)OC(C)C(=O)Nc4ccc([N+](=O)[O-])cc4)c3c2)c1` (stereo not given) as the molecule, how does the IC50 [15] read?
A: The IC50 was 1.51 µM (active).

Q: What about the IC50 [16] of the same molecule?
A: The IC50 was 3.66 µM (active).

Q: What about the IC50 [17] of the same molecule?
A: The IC50 was > 69.5 µM (inactive).

Q: For `CC(C)N1C[C@H](C)[C@@H](CN(C)Cc2ccc(Cl)c(Cl)c2)Oc2c(cccc2-c2nnc(-c3ccncc3)o2)C1=O`, which AC50 [18] is on record?
A: The AC50 was 62.4 nM (active).

Q: Which AC50 [18] does the source give for `CC(C)N1C[C@@H](CN(C)Cc2ccc(Cl)c(Cl)c2)Oc2c(NC(=O)c3ccncc3)cccc2C1=O` here?
A: The AC50 was 0.485 nM (active).

Q: Which IC50 [19] does the source give for `Cc1cccc(NC(S)=NNC(=O)c2csc(C)c2)c1` here?
A: The IC50 was > 122 µM (inactive).

Q: With `CN(C)Cc1c(C(=O)N/N=C/c2cccc(OCc3ccc(F)cc3)c2)nnn1-c1nonc1N` as the molecule, how does the EC50 [6] read?
A: Its EC50 is 45.2 µM (inactive).

Q: What about the EC50 [7] of the same molecule?
A: Its EC50 is > 99 µM (inactive).

Q: Which results are given for `COc1ccc(NC(=O)N(C)C[C@H]2Oc3cc(C#CCC(C)C)ccc3S(=O)(=O)N([C@H](C)CO)C[C@H]2C)cc1`?
A: AC50 [8]: 38.3 µM (active); AC50 [9]: 1.3 µM (active); AC50 [10]: 1.7 µM (active); AC50 [11]: 1.5 µM (active); AC50 [12]: 1.21 µM (active)

Q: Which IC50 [20] does the source give for `CCOC(=O)C1CCN(Cc2c(O)ccc3ccccc23)CC1` here?
A: Its IC50 is > 50 µM (not active).

Q: With `CCC(C)NS(=O)(=O)c1ccc(NS(C)(=O)=O)cc1` (stereo not given) as the molecule, how does the IC50 [13] read?
A: The IC50 was > 109 µM (inactive).

Q: And the IC50 [14]?
A: Its IC50 is > 83.3 µM (inactive).
